Counter-ions that a name gives are not always drawn. Like-named read-outs stand apart in the source and are kept apart here.
Columns and labels:
[1] = In vitro dissolution rate test in phosphate buffer (1000 ml, 50 turns per minute, HPLC); type: physicochemical
[2] = as above; type: physicochemical; parameters: unit not given here
Procedure: PVP was used as the carrier material. The solid dispersion is prepared by solvent method (drug:carrier=1:10), and the method to evaluate solubility in vitro is given as follows:
Using this method, 5 ml of the solution was taken at 5 min, 10 min, 15 min, 20 min, 30 min, 45 min, and 60 min (5 ml dissolution medium was supplemented after the 5 ml solution was taken out) and filtered. The filtrate was taken as the test solution and checked for purity using HPLC.
(2) A solid dispersion which contains the drug substance 5 mg, according to the method of dissolution rate test and 1000 ml at pH 6.8 phosphate buffer was used as dissolution medium, with a rotating speed of 50 turns per minute. Using this method, 5 ml of the solution was taken at 5 min, 10 min, 15 min, 20 min, 30 min, 45 min, and 60 min (5 ml dissolution medium was supplemented after the 5 ml solution was taken out) and filtered. The filtrate was taken as the test solution and checked for purity using HPLC.
The dissolution rate of examples 1-11 were evaluated by the evaluation system mentioned above.
The dissolution rate was evaluated in pH 4.5 phosphate buffer:
The dissolution rate was evaluated in pH6.8 phosphate buffer: […]

[3] = cited from earlier work
[4] = drugs administrated alone; cited from earlier work

Q: For CC(=O)Oc1cc2c(s1)CCN(C(C(=O)C1CC1)c1ccccc1F)C2 (stereo not drawn) [prasugrel, 5-(2-cyclopropyl-1-(2-fluorophenyl)-2-oxoethyl)-4,5,6,7-tetrahydrothieno[3,2-c]pyridin-2-yl acetate], which “dissolution rate after micronization only” value ([1]; pH4.5 and pH6.8, compared to prasugrel hydrochloride prepared by only micronization) is on record?
A: improved, but there is still a gap

Q: And the “solubility after micronization only” value ([1]; pH 6.8, compared to prasugrel hydrochloride)?
A: poorer than that of prasugrel hydrochloride

Q: For CC(=O)Oc1cc2c(s1)CCN(C(C(=O)C1CC1)c1ccccc1F)C2 (stereo not drawn) [Prasugrel hydrochloride, prasugrel hydrochloride], which dissolution rate ([2]; pH 4.5 phosphate buffer, 0 min) is on record?
A: 0

Q: What about the dissolution rate ([2]; pH 4.5 phosphate buffer, 5 min) of the same compound?
A: 16.71

Q: What about the dissolution rate ([2]; pH 4.5 phosphate buffer, 10 min) of the same compound?
A: 26.66

Q: And the dissolution rate ([2]; pH 4.5 phosphate buffer, 15 min)?
A: 32.45

Q: And the dissolution rate ([2]; pH 4.5 phosphate buffer, 20 min)?
A: 36.78

Q: And the dissolution rate ([2]; pH 4.5 phosphate buffer, 30 min)?
A: 43.42

Q: And the dissolution rate ([2]; pH 6.8 phosphate buffer, 0 min)?
A: 0

Q: What about the dissolution rate ([2]; pH 6.8 phosphate buffer, 5 min) of the same compound?
A: 13.69

Q: And the dissolution rate ([2]; pH 6.8 phosphate buffer, 15 min)?
A: 21.03

Q: And the dissolution rate ([2]; pH 6.8 phosphate buffer, 30 min)?
A: 23.99

Q: And the dissolution rate ([2]; pH 6.8 phosphate buffer, 45 min)?
A: 25.13

Q: What about the dissolution rate ([2]; pH 6.8 phosphate buffer, 60 min) of the same compound?
A: 25.62

Q: What about the solubility ([3]; pH 1-4) of the same compound?
A: slightly soluble

Q: And the solubility ([3]; pH 5)?
A: very slightly soluble

Q: And the solubility ([3]; pH 6-7)?
A: insoluble

Q: And the “bioavailability, hydrochloride vs free base form” value [4]?
A: about equal
